In test [1] the target is T1, KDR (baculovirus expressed human KDR kinase domain D807-V1356) (Homo sapiens, UniProt P35968).
T1 construct: human KDR kinase domain D807-V1356; host or cells: baculovirus expression system
Put plainly: biochemical. The gist of the method: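 Luciferase-coupled chemiluminescence quantifies ATP left after a 4 h room-temperature reaction of KDR kinase domain (D807–V1356, baculovirus-expressed human). ATP set close to KM; inhibitors tested at 10 concentrations.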

A further test addresses c-Kit kinase (Homo sapiens, UniProt P10721). Put plainly: c-Kit AlphaScreen kinase assay. The test is classed as biochemical. On the technique in general: Bead proximity is the source of the signal in Alpha formats.
The target in the next test is EphA2 (Homo sapiens, UniProt P29317). Put plainly: Kinase assay, EphA2 (33P-ATP incorporation or luciferase-coupled ATP consumption). The test is classed as biochemical. The essentials:
(§1)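 Two formats used: luciferase/luciferin chemiluminescence of ATP consumed with pEY, or radiometric 33P transfer to plate-bound MBP or pEY read by scintillation.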

The next test has as its target EGFR (Homo sapiens, UniProt P00533). Put plainly: Kinase assay, EGFR (33P-ATP incorporation or luciferase-coupled ATP consumption). The test is classed as biochemical. The essentials: as §1
The target in another test is FGFR1 (Homo sapiens, UniProt P11362). Put plainly: Kinase assay, FGFR1 (33P-ATP incorporation or luciferase-coupled ATP consumption). It is filed as biochemical. The gist of the method: as §1
The target of another test is PDGFR alpha (Homo sapiens, UniProt P16234). As to the kind of experiment: Kinase assay, PDGFR alpha (33P-ATP incorporation or luciferase-coupled ATP consumption). The test is classed as biochemical. Conditions: read-out: PDGF-R-A IC50. The essentials:
as §1

The next test concerns the target T2, Flt3 (Homo sapiens, UniProt P36888).
T2 sequence (P36888 27-993): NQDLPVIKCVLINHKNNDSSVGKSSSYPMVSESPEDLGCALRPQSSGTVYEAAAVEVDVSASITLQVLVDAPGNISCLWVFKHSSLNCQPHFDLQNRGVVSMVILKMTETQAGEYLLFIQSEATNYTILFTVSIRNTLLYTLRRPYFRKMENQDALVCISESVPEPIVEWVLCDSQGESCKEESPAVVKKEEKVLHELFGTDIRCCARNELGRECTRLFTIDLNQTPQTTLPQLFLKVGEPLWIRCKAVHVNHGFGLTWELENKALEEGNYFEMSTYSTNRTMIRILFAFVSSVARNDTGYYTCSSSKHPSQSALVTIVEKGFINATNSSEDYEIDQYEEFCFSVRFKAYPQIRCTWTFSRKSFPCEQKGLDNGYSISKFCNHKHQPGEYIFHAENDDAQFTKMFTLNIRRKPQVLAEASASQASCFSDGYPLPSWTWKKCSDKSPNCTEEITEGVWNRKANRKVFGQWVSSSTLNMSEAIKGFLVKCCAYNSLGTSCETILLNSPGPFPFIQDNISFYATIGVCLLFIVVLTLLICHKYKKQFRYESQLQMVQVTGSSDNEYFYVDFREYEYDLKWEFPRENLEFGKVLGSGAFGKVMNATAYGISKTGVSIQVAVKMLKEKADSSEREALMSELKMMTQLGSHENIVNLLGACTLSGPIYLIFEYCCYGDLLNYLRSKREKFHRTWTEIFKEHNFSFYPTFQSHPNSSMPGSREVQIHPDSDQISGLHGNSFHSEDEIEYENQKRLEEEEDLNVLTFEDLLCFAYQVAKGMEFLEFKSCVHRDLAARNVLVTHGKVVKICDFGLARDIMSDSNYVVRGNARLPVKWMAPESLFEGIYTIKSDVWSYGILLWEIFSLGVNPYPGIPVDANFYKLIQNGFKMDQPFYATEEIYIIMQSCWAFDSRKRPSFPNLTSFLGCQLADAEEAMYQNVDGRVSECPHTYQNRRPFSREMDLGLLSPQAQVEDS
Put plainly: Kinase assay, Flt3. The test is classed as biochemical. As to the method:
(§2) Kinase activity and compound inhibition are investigated using one or more assay formats. The ATP concentrations for each assay are selected to be close to the Michaelis-Menten constant (KM) for each individual kinase. Dose-response experiments are performed at 10 different inhibitor concentrations in a 384-well plate format. […] Exemplary kinase assays are described below. KDR Assay

Another test concerns the target Fyn (Homo sapiens, UniProt P06241). Put plainly: Kinase assay, Fyn. It is filed as biochemical. As for the experimental part:
as §2

A further test has as its target IRK (Homo sapiens, UniProt P06213). Put plainly: Kinase assay, IRK. It is filed as biochemical. As to the method:
as §2

The next test deals with ALK (Homo sapiens, UniProt Q9UM73). Put plainly: Kinase assay, ALK (33P-ATP incorporation or luciferase-coupled ATP consumption). The test is classed as biochemical. As to the method:
Kinase assays were performed by measurement of incorporation of γ-^33P ATP into immobilized myelin basic protein (MBP). […] Plates were washed 3× with 100 μl TBS. […] Compound dilutions were performed in DMSO and added to assay wells to a final DMSO concentration of 1%. Each data point was measured in duplicate, and at least two duplicate assays were performed for each individual compound determination. Enzyme was added to final concentrations of 10 nM or 20 nM, for example. A mixture of unlabeled ATP and γ-^33P ATP was added to start the reaction (2×10^6 cpm of γ-^33P ATP per well (3000 Ci/mmole) and either 10 μM or 30 μM unlabeled ATP, typically. The reactions were carried out for 1 hour at room temperature with shaking. Plates were washed 7× with TBS, followed by the addition of 50 μl/well scintillation fluid (Wallac). Plates were read using a Wallac Trilux counter. This is only one format of such assays, various other formats are possible, as known to one of ordinary skill in the art.
Tyrosine kinase activity is determined by 1) measurement of kinase-dependent ATP consumption by in the presence of a generic substrate such as, polyglutamic acid, tyrosine, 4:1 (pEY), by luciferase/luciferin-mediated chemiluminescence or; 2) incorporation of radioactive phosphate derived from ^33P-ATP into a generic substrate which has been adsorbed onto the well surface of polystyrene microtiter plates. Phosphorylated substrate products are quantified by scintillation spectrometry.
as §2

Structures are written as SMILES.

Broadly, the IC50 is the point on the concentration scale where inhibition reaches its midpoint.

Sequence of c-Kit kinase (P10721 26-976): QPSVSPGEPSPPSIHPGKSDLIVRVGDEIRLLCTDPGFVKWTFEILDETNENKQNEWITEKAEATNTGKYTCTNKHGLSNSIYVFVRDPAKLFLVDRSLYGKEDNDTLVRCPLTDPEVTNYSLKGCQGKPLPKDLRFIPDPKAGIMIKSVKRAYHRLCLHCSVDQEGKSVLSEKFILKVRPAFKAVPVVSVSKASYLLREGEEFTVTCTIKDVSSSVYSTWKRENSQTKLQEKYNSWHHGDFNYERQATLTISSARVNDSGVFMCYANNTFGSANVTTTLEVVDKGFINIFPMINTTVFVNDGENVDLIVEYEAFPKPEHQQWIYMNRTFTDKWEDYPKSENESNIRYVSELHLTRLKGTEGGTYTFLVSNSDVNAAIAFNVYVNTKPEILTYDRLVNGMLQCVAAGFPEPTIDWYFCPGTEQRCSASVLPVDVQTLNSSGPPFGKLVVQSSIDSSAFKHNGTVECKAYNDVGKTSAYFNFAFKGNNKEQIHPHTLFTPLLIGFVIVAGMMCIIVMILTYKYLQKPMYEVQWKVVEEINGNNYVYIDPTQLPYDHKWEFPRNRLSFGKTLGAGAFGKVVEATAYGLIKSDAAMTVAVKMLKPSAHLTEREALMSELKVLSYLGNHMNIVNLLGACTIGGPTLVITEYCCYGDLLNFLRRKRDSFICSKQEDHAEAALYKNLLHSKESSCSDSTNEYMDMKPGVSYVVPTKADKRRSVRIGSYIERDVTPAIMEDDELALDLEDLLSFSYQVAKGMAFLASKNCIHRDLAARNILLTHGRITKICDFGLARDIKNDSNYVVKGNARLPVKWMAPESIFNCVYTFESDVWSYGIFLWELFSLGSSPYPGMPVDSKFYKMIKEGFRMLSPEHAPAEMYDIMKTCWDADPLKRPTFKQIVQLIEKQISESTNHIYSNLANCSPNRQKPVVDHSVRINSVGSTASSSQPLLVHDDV
Sequence of Fyn (P06241 whole entry, species assumed): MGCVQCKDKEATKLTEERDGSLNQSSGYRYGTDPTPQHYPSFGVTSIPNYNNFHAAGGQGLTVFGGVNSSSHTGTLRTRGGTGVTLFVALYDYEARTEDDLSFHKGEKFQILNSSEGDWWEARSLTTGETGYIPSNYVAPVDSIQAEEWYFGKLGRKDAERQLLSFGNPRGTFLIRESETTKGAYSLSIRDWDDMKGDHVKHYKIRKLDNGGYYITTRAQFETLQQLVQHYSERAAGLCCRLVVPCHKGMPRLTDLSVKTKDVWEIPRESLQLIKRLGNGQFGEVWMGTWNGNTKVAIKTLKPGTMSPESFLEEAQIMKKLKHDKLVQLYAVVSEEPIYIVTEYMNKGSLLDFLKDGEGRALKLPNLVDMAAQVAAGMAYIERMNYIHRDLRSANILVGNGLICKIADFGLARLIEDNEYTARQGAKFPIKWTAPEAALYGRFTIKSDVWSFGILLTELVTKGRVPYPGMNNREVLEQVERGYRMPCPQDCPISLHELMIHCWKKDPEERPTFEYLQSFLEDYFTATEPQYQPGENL
Sequence of IRK (P06213 28-1382): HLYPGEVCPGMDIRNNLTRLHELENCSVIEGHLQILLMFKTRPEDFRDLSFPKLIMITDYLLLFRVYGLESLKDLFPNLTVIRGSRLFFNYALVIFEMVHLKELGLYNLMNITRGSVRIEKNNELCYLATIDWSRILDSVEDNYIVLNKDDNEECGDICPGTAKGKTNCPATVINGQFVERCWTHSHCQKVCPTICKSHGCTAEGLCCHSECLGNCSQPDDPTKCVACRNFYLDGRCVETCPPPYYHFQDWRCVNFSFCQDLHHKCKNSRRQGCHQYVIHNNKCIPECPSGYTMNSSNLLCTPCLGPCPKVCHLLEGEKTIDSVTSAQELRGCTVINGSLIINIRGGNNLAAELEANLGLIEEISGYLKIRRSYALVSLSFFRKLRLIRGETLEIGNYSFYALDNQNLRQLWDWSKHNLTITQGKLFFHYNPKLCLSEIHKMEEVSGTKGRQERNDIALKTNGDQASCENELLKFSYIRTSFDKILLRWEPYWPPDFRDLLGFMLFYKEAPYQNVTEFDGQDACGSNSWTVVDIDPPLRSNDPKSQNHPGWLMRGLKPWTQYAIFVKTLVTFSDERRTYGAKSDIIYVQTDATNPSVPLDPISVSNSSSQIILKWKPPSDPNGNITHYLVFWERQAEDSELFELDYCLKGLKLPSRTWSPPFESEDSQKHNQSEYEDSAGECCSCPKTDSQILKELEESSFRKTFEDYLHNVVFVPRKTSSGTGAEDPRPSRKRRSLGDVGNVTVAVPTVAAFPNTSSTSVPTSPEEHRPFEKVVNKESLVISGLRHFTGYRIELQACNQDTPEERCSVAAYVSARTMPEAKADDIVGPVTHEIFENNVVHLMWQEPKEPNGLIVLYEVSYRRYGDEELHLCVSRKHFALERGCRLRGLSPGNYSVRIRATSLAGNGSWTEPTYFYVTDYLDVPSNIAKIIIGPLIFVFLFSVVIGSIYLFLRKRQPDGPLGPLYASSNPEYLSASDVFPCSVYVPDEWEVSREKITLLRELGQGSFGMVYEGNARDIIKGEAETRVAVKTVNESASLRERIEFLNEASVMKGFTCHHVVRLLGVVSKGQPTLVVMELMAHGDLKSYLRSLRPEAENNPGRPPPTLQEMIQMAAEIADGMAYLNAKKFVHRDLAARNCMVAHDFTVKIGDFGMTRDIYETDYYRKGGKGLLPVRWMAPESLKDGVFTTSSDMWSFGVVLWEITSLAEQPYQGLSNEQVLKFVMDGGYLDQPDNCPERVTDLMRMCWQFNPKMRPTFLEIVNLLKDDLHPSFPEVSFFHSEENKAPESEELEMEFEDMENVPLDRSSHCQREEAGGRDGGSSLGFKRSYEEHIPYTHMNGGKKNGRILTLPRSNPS
Sequence of EphA2 (P29317 24-976, species assumed): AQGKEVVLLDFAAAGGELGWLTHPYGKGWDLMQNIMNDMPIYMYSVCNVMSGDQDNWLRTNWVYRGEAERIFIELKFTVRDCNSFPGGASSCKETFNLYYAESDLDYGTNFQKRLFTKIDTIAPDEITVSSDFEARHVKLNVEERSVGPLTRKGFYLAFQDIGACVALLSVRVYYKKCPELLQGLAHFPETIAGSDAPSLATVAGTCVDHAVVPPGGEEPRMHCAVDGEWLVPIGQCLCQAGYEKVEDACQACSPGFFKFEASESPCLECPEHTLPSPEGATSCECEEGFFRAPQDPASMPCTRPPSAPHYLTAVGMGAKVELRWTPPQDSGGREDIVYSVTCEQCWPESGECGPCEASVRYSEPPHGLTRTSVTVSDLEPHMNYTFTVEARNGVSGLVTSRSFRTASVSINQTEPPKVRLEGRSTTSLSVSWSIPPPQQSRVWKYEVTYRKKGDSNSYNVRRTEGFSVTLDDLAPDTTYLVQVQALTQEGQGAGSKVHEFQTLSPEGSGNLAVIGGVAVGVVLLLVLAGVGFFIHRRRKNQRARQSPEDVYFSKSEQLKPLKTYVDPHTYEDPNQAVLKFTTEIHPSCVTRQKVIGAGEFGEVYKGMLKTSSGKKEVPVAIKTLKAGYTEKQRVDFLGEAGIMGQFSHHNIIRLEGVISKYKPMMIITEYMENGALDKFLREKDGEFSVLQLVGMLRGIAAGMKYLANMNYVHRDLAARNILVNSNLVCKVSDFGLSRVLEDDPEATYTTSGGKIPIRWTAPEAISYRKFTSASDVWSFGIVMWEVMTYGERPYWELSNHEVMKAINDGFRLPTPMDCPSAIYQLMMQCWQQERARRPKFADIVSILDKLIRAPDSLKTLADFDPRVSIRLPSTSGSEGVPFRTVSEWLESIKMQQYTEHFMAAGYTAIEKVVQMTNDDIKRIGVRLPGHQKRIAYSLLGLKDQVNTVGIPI
Sequence of EGFR (P00533 25-1210, species assumed): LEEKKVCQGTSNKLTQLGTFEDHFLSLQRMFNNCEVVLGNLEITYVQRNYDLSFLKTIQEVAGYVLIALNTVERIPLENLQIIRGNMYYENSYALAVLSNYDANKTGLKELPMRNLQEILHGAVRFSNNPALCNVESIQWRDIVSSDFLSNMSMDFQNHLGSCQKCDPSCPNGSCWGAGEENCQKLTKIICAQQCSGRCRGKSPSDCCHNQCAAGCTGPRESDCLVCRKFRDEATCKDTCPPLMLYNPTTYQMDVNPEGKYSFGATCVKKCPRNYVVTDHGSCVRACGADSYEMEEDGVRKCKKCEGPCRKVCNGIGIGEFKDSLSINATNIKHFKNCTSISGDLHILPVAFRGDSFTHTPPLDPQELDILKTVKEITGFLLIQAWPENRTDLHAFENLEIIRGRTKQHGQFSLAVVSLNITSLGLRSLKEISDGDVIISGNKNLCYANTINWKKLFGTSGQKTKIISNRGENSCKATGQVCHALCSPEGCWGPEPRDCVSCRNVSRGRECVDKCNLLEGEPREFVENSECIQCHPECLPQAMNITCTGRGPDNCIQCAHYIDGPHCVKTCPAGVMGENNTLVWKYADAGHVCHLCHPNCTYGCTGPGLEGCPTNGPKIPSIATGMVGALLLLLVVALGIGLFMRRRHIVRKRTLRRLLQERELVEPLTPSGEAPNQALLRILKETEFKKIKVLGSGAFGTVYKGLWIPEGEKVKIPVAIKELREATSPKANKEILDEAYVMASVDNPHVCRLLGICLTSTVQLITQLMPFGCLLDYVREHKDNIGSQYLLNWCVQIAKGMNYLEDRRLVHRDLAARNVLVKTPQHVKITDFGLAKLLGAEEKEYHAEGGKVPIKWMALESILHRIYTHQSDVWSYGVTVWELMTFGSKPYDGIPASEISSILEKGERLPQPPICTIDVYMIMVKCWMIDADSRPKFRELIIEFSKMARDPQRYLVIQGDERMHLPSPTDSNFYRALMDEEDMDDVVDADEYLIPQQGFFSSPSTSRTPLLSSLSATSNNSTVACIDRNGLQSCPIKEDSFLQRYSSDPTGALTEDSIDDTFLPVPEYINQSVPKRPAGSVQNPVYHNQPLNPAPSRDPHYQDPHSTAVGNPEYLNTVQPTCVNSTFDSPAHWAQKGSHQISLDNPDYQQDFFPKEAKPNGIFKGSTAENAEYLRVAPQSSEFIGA

Consider `CCN1CCC(Nc2ccc3c(c2)/C(=C(/c2ncc[nH]2)c2cc(F)c(Cl)cc2Cl)C(=O)N3)CC1` [Entry 116, (3Z)-3-[(2,4-dichloro-5-fluorophenyl) (1H-imidazol-2-yl)methylidene]-5-[(1-ethylpiperidin-4-yl)amino]-1,3-dihydro-2H-indol-2-one], for which the IC50 in [1] is < 50 nM; at c-Kit kinase, < 50 nM; on EphA2, 500 to 5000 nM; against EGFR, 50 to 500 nM; on FGFR1 it was < 50 nM; on PDGFR alpha it was < 50 nM. Also, the IC50 was < 50 nM against Flt3, < 50 nM against Fyn and 500 to 5000 nM at IRK.
Regarding `CCN1CCC(Nc2ccc3c(c2)/C(=C(\c2cc(F)cc(F)c2)c2nc(C)c[nH]2)C(=O)N3)CC1` [Entry 74, (3Z)-3-[(3,5-difluorophenyl)(4-methyl-1H-imidazol-2-yl)methylidene]-5-[(1-ethylpiperidin-4-yl)amino]-1,3-dihydro-2H-indol-2-one], the half-maximal inhibitory concentration (IC50) was < 50 nM on c-Kit kinase; 50 to 500 nM on EphA2; 50 to 500 nM against EGFR; 50 to 500 nM on ALK; < 50 nM at Flt3; < 50 nM on Fyn. Also, the IC50 at IRK lay in the range of 500 to 5000 nM.
